Assay results published in paper doi:10.1101/2024.10.13.618094 (bioRxiv, 2024).
“Also recorded” adds a separate entry of the source. *1 amine or outer side, *2 acyl side, *3 side chain or, on linkers, in order; H or OH if unused. Where a SMILES comes first, the peptide text is derived from it. [ ]: non-standard residue; d: D form. The star is where a group is joined. Pheol(OBn) = c1ccc(COC[C@H](Cc2ccccc2)N*)cc1; Dnp = O=[N+]([O-])c1ccc(*)c([N+](=O)[O-])c1; NH(4-phenylbutyl) = c1ccc(CCCCN*)cc1; Mca = COc1ccc2c(CC(=O)*)cc(=O)oc2c1; X1 = C[C@H](N[*:1])C(=O)C(=O)[*:2]

Tests used:
[1] = test system: purified wild-type RHBDL4; test: TAMRA-FP active-site probe competition on purified RHBDL4; type: binding, human; details: purified RHBDL4, SDS-PAGE, Cy3 fluorescence; compared with inactive RHBDL4-S144A control
Text: Inhibition of recombinant purified RHBDL4 proteolytic activity by N-substituted peptidyl α-ketoamides. (A) Proteolytic rates of the fluorescent substrate IQ6 by RHBDL4 in the presence of increasing concentrations of the general protease inhibitors, Dicyclocoumarin (DCI), tosyl-phenylalanine-chloromethyl ketone (TPCK) and 4-(2-aminoethyl) benzenesulfonyl fluoride (AEBSF). […] (D) Representative inhibition curve derived from measuring rates of RHBDL4 proteolysis of the fluorescent substrate IQ6 with increasing concentrations of compound 1a. (E) Same as (D), except inhibition curve was derived from using increasing concentrations of compound 1b. […] Reactions were quenched with 1×Laemmli buffer and loaded on 12% SDS-PAGE gel. Post-transfer membranes were visualized using a fluorescence Cy3 filter and by western blotting using an α-RHBDL4 antibody. For (A), (D), and (E), all inhibitors were pre-incubated with RHBDL4 for 1hr and allowed to react with the IQ6 substrate for 2 h. Assays were performed in triplicate, and data points represent the average ± standard deviation.
In vitro inhibition of RHBDL4 activity with TMED7-derived peptidyl α-ketoamides. […] (B) Representative inhibition curve derived from measuring rates of RHBDL4 proteolysis of the fluorescent substrate IQ6 with increasing concentrations of compound 3. (C) Same as (B), except inhibition curve was derived from using increasing concentrations of compound 4. […] Reactions were quenched with 1×Laemmli buffer and loaded on 12% SDS-PAGE gel. Post-transfer membranes were visualized using a fluorescence Cy3 filter and by western blotting using an α-RHBDL4 antibody. […] For (B) and (C), all inhibitors were pre-incubated with RHBDL4 for 1hr and allowed to react with the IQ6 substrate for 2 h. All assays were performed in triplicate, and data points represent the average ± standard deviation.

[2] = test system: RHBDL4-GFP in ER-enriched microsomes from HEK293T cells; test: TAMRA-FP competition label assay in ER-enriched microsomes; type: binding, human; details: 100 μM compound, preincubated 1 h at 37°C; 500 nM TAMRA-FP for 2 h at 37°C; immunoprecipitation, Cy3 fluorescence
Protocol: We aimed to investigate our RHBDL4 inhibitors in a more physiological context. […] To achieve this, we prepared ER-enriched microsomes from HEK293T cells transfected with RHBDL4-GFP, then pre-incubated microsomes with 100 μM of each compound, before TAMRA-FP was added to the microsomal fractions. RHBDL4-GFP was immunoprecipitated and visualized for TAMRA-FP fluorescence signal and western blotting. […] We surmise that the peptidyl α-ketoamides may have low membrane penetrability, making them weak inhibitors in microsome and cell-based assays. Further refinement is needed to design peptidyl α-ketoamides that effectively penetrate lipids and inhibit RHBDL4 activity in its native context.
Figure 6. RHBDL4 inhibition studies in ER-enriched microsomes ER-enriched microsomes were preincubated with 100 μM of compounds or DMSO vehicle control followed by addition of 500 nM of TAMRA-FP serine hydrolase probe. […] TAMRA-FP labeling was analyzed via Cy3 filter followed by western blotting using α-GFP antibody.
ER-enriched microsomes were obtained by hypotonic swelling and centrifugation from Hek293T cells 24 h after transfection. […] TAMRA-FP-labelling was analyzed in the wet gel with a green light source (535 nm) and a Cy3 filter by detecting fluorescence emission using ImageQuant 800 Fluor CCD imager (Cytiva) followed by western blotting using a α-GFP antibody (Roche).

[3] = molecular target: T1, recombinant human RHBDL4 (Homo sapiens, UniProt Q8TEB9); test: FRET-based cleavage assay with fluorogenic substrates (Michaelis–Menten kinetics); type: biochemical; details: pH 8, 37°C, 0.1% DDM, Michaelis–Menten fit, triplicate, average ± SD
T1 construct: The entire RHBDL4 and RHBDL4-S144A cDNAs were subcloned into the pcDNA3.1 vector; 6xHis (C, cleaved yes); made in house; host or cells: Freestyle 293-F cells (transient transfection, pcDNA3.1-HisA)
T1 sequence (Q8TEB9 1-315): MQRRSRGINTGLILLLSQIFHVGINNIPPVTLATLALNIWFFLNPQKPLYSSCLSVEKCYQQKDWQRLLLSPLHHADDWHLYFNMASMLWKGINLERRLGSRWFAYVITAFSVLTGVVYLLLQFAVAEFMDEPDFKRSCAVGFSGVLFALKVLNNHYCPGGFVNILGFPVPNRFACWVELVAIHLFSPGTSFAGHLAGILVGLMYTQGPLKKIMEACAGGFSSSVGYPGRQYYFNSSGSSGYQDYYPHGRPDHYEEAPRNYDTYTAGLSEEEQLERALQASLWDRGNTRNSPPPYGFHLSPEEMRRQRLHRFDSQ
Protocol: We employed a FRET-based assay to determine the activity of RHBDL4. The RHBDL4 proteolytic activity was tested against a suite of fluorescent, internally quenched (IQ) substrates that have been previously used to test the activity of rhomboid protease PARL (Fig. S2A)([Lysyk et al. 2021]). These substrates consist of 7–10-mer peptide sequences flanked by the fluorescent donor group 7-methoxycourmarin (mc) on the N terminus and quencher acceptor group dinitrophenol (dnp) on the C terminus (Fig. 2A) ([Arutyunova et al. 2018]). In general, the donor and acceptor are in proximity within the fluorogenic peptides and show low fluorescence due to internal quenching. Hydrolysis of the peptide bond between the donor and the acceptor leads to physical separation of the FRET pairs and increase in fluorescence, which would be proportional to RHBDL4 protease activity (Fig. 2A).
The reaction setup in our FRET assay enabled the direct determination of Michaelis–Menten kinetic parameters Km and kcat for the cleavage of IQ6, IQ41, and IQ46 by RHBDL4. Our fluorescence reading data were converted to μM/h using the standard calibration curve for all three IQ substrates, and the correction factor for the inner filter effect was applied. We confirmed that purified RHBDL4 followed Michaelis–Menten kinetics with KmIQ6=10.73±2μM , KmIQ41=5.63±2μM , and KmIQ46=7.19±1μM and kcatIQ6=7.33±0.6h^−1 , kcatIQ41=2.41±0.6h^−1 , and kcatIQ46=3.62±0.08h^−1 (Fig. 2B and S2B).
The enzymatic assay was performed as previously described (Arutyunova et al., 2014, [Arutyunova et al., 2018]). […] The FRET-based cleavage assay was conducted in a fluorescence multi-well plate reader (SynergyMx, BioTek, VT, USA). Upon excitation at 320 nm, the emission intensity at 400 nm was recorded for 2 h at minimal intervals under shaking conditions and plotted using the GraphPad PRISM software. The initial velocities were defined as the slopes of the curve of the generated product as a function of time. The plots of the generated product against the corresponding substrate concentration were fitted with the Michaelis–Menten equation. Catalytic parameters were extrapolated using GraphPad PRISM. […] The samples were desalted using C18 tips (Rainin, Columbus, OH, USA), eluted in 80% acetonitrile, and dried down in a vacuum centrifuge prior to mass spectrometry analysis.
All the calculations for Km, Vmax, and Kcat for RHBDL4 and its mutants were performed using GraphPad PRISM.

[4] = molecular target: T2, rhomboid protease RHBDL4, wild type (recombinant, purified) (human) (UniProt Q8TEB9)
T2 sequence: T1 sequence (Q8TEB9 1-315)

[5] = test system: RHBDL4; test: 1.5 μM of wild-type RHBDL4 in activity buffer containing 20 mM citrate phosphate pH 8.0, 150 mM NaCl, 20% (v/v) glycerol, and 0.1% (w/v) DDM; details: human, 37°C, up to 2 h
[6] = test system: RHBDL4; test: 1.5 μM of wild-type RHBDL4 (purified recombinant); details: human, room temperature, up to 4 h
[7] = molecular target: T3, rhomboid protease RHBDL4, wild type (recombinant, purified) (human, UniProt Q8TEB9 1-315); test: cell-based or functional assay
T3 sequence (looked up): T1 sequence (Q8TEB9 1-315)

CSCC[C@H](NC(=O)[C@H](CCC(N)=O)NC(C)=O)C(=O)N[C@@H](CCC(=O)O)C(=O)N[C@@H](CO)C(=O)N[C@@H](C)C(=O)C(=O)NCCCCc1ccccc1 [Compound 3] (Ac-QMES[X1]-{NH(4-phenylbutyl)})
Competition with TAMRA-FP probe for the RHBDL4 catalytic site (fluorescent signal) [1]: reduction in overall fluorescent signal
Effect on TAMRA-FP labeling of RHBDL4-GFP in microsomes [2]: reduced

mca-FVTKGK(dnp) [IQ41, fluorescent internally quenched substrate mca-FVTKGK(dnp)]
Km [3]: 5.63 ± 2 µM

peptidyl α-ketoamide compound 1b (Ac-VRHA-CONH-CH(Bn)-CH2OBn) (peptide)
IC50 of inhibition of RHBDL4 proteolysis of the fluorescent substrate IQ6 (in vitro FRET-based cleavage assay; 1 h pre-incubation, 2 h reaction) [4]: 6100 nM

mca-RPKPYAvWMK(dnp)
not cleaved [5]: did not observe any RHBDL4-catalyzed activity

Mca-Arg-Pro-Pro-Gly-Phe-Ser-Ala-Phe-Lys (DNP)-OH (Mca-RPPGFSAFK(Dnp)-OH; SMILES COc1ccc2c(CC(=O)N[C@@H](CCCNC(=N)N)C(=O)N3CCC[C@H]3C(=O)N3CCC[C@H]3C(=O)NCC(=O)N[C@@H](Cc3ccccc3)C(=O)N[C@@H](CO)C(=O)N[C@@H](C)C(=O)N[C@@H](Cc3ccccc3)C(=O)N[C@@H](CCCCNc3ccc([N+](=O)[O-])cc3[N+](=O)[O-])C(=O)O)cc(=O)oc2c1) [IQ6, fluorescent internally quenched substrate mca-…(dnp)]
Km [3]: 10.7 ± 2 µM

Ac-QMESA-4mc [KSp207, TMED7-derived fluorescent substrate Ac-QMESA-4mc]
Km [3]: 3.09 ± 1 µM

CC(=O)N[C@H](C(=O)N[C@@H](CCCNC(=N)N)C(=O)NC(Cc1c[nH]cn1)C(=O)N[C@@H](C)C(=O)C(=O)N[C@H](COCc1ccccc1)Cc1ccccc1)C(C)C (some centres unmarked) [Compound 1a]
Competition with TAMRA-FP probe for the RHBDL4 catalytic site (fluorescent signal) [1]: significant reduction of fluorescent signal

CSCC[C@H](NC(=O)[C@H](CCC(N)=O)NC(C)=O)C(=O)N[C@@H](CCC(=O)O)C(=O)N[C@@H](CO)C(=O)N[C@@H](C)C(=O)C(=O)N[C@H](COCc1ccccc1)Cc1ccccc1 [Compound 4] (Ac-QMES[X1]-{Pheol(OBn)})
Competition with TAMRA-FP probe for the RHBDL4 catalytic site (fluorescent signal) [1]: reduction in overall fluorescent signal
Effect on TAMRA-FP labeling of RHBDL4-GFP in microsomes [2]: reduced

mca-AVFLSAVAG(dnp)
not cleaved [5]: did not observe any RHBDL4-catalyzed activity

mca-FLVRGK(dnp) [IQ46, fluorescent internally quenched substrate mca-FLVRGK(dnp)]
Km [3]: 7.19 ± 1 µM

mca-RPPGFSAFK(dnp)
cleaved bond [6]: Ala-Phe, 4 h; also recorded: Ser-Ala, 4 h

peptidyl α-ketoamide compound 1a (Ac-VRHA-CONH-CH(Bn)-CH2OBn) (peptide)
IC50 of inhibition of RHBDL4 proteolysis of the fluorescent substrate IQ6 (in vitro FRET-based cleavage assay; 1 h pre-incubation, 2 h reaction) [4]: 2310 nM

Ac-QMESA-{CONH‑(CH2)4‑Ph} (also: C-terminal α-ketoamide) [peptidyl α-ketoamide compound 3 (Ac-QMESA-CONH-(CH2)4-Ph)]
IC50 of inhibition of RHBDL4 proteolysis of the fluorescent substrate IQ6 (in vitro FRET-based cleavage assay; 1 h pre-incubation, 2 h reaction) [7]: 54 nM

Ac-QMESA-{CONH‑CH(Bn)‑CH2OBn} (also: C-terminal α-ketoamide) [peptidyl α-ketoamide compound 4 (Ac-QMESA-CONH-CH(Bn)-CH2OBn)]
IC50 of inhibition of RHBDL4 proteolysis of the fluorescent substrate IQ6 (in vitro FRET-based cleavage assay; 1 h pre-incubation, 2 h reaction) [7]: 85 nM

Ac-PGFSA-{α‑ketoamide ‑CONH‑(CH2)4‑Ph} [peptidyl α-ketoamide compound 2 (Ac-PGFSA-CONH-(CH2)4-Ph)]
IC50 of inhibition of RHBDL4 activity (in vitro FRET-based cleavage assay) [4]: 3400 nM
